Test results reported in EP0476645B1, “Calcium uptake inhibitors” (MERRELL DOW PHARMACEUTICALS INC., priority 1990, dated 1992).
Like-named read-outs stand apart in the source and are kept apart here.

Legend:
Rat PMNL = assay: Superoxide anion (SOA) production by stimulated PMNL; assay type: cell-based; conditions: for inhibition of superoxide anion production: PMA and OZ stimulus, result in words; for inhibition at 1 µM / inhibition at 3 µM / inhibition at 10 µM / inhibition at 30 µM / inhibition at 100 µM: Rattus norvegicus, PMNL, inhibition of superoxide anion production; for inhibition at 1 µM: 1 µM compound; for inhibition at 3 µM: 3 µM compound; for inhibition at 10 µM: 10 µM compound; for inhibition at 30 µM: 30 µM compound; for inhibition at 100 µM: 100 µM compound
Method: Rat PMNL were obtained from exudates resulting from peritoneal injection of 6 mL of 8% sodium caseinate. Eighteen hours after injection rats were killed by carbon dioxide inhalation and the peritoneal cavity lavaged with Hank's balanced salt solution (HBSS). After concentration of the PMNL by centrifugation, contaminating erythrocytes were removed by hypotonic lysis. The PMNL were then washed twice by centrifugation (400 x g for 10 minutes) and resuspended in HBSS. Cell viability was greater than 90% by Trypan Blue exclusion and greater than 90% of the cells were PMNL by Wright-Giemsa stain.
Aliquots (50 µl) of a rat PMNL suspension (2 x 10⁷ cells/mL in HBSS) were incubated with 50 µl of HBSS containing vehicle (0.3% DMSO) or compound for 30 minutes at 37°C as above. One hundred microliters of buffer containing 5.98 mg/mL of cytochrome C (Sigma Type III) and 0.1 mg/mL catalase, plus the compounds where appropriate, were then added to each sample. A blank for spectrophotometric measurement, containing unstimulated cells in the presence of cytochrome C, catalase and SOD, was also prepared. To activate the PMNL, 75 µl of PMA or OZ were added to achieve the final concentration of cell activator (plus vehicle or inhibitor as described above for MPO release) and the cells further incubated at 37°C for 60 minutes. The activation was terminated by centrifugation at 600 x g for 5 minutes at 4°C. Aliquots (200 µl) of supernatant were then transferred to a second, flat-well microtiter plate and measured spectrophotometrically at 550 nm. […]

[1] = test system: Mustard Oil-Induced Mouse Ear Edema; assay: Mustard oil-induced mouse ear edema; assay type: in vivo, Charles River male CD-1 mice; conditions: ear weight increase after 30 minutes
Method: Charles River male CD-1 mice weighing 30-60 grams were divided into randomized groups. They were dosed i.p. for 30 minutes prior or orally 1 hour prior to application of 20 µl of mustard oil (10% isothiocyanate in acetone) to the right ear. After 30 minutes the mice were sacrificed and an 8 millimeter diameter circular punch biopsy of each ear was obtained and weighed. The difference between the left (control) and right (treated) ear weights were expressed as percent increase.

[2] = test system: Carrageenin-Induced Rat Paw Edema; assay: Carrageenin-induced rat paw edema; assay type: in vivo, Charles River male Sprague-Dawley rats; conditions: one hour prior to paw injection, paw volume three hours after carrageenin, dose not given
Method: Charles River male Sprague-Dawley rats weighing 90 to 100 grams were used. Inflammation of the left hind paw was induced by a 1% carrageenin solution (0.05 cc), injected into the plantar surface of the paw. The contralateral paw was injected with an equal volume of saline. Drugs were administered orally or i.p. (1 cc/100 grams) one hour prior to paw injection. Three hours following the carrageenin injection the difference in volume of the control and inflamed paw was measured. Each paw was immersed in a well of mercury and the volume of mercury displaced was recorded. Paws were uniformly dipped into the mercury up to the beginning of the hairline. A venous pressure transducer, coupled to a chart recorder, was employed to measure the small volumes of mercury displaced. Each group measurement consists of the average of four rats, each with three separate measurements.

[3] = PMA stimulus, read-out: PMA/SOA
[4] = opsonized zymosan stimulus, read-out: OZ/SOA
[5] = 10 mg/Kg i.p., 30 minutes prior to mustard oil
[6] = 10 mg/Kg oral, 1 hour prior to mustard oil
[7] = 30 mg/Kg i.p., 30 minutes prior to mustard oil
[8] = 30 mg/Kg oral, 1 hour prior to mustard oil
[9] = 100 mg/Kg i.p., 30 minutes prior to mustard oil
[10] = 100 mg/Kg oral, 1 hour prior to mustard oil

SMILES | inhibition of superoxide anion production (Rat PMNL) | inhibition at 1 µM (Rat PMNL; [3]) [%] | inhibition at 3 µM (Rat PMNL; [3]) [%] | inhibition at 10 µM (Rat PMNL; [3]) [%] | inhibition at 30 µM (Rat PMNL; [3]) [%] | inhibition at 100 µM (Rat PMNL; [3]) [%] | inhibition at 1 µM (Rat PMNL; [4]) [%] | inhibition at 3 µM (Rat PMNL; [4]) [%] | inhibition at 10 µM (Rat PMNL; [4]) [%] | inhibition at 30 µM (Rat PMNL; [4]) [%] | inhibition at 100 µM (Rat PMNL; [4]) [%] | %Inhibition [1, 5] [%] | %Inhibition [1, 6] [%] | %Inhibition [1, 7] [%] | %Inhibition [1, 8] [%] | %Inhibition [1, 9] [%] | %Inhibition [1, 10] [%] | %Inhibition ([2]; i.p.) [%] | %Inhibition ([2]; p.o.) [%]
O=C(C#Cc1ccncc1)c1ccccc1 [MDL 101,098, 1-Phenyl-3-(4-pyridinyl)-2-propyne-1-one] | inhibited in a dose dependent fashion | -30.7 | -4.3 | 29.1 | 70 | 97.2 | -18 | -7.5 | 20.3 | 61.5 | 115 | 38.6 ± 13.1 | 38.5 ± 34.9 | 56.8 ± 6.4 | 6.4 ± 27.7 | 68.2 ± 5.8 | 43.9 ± 15.6 | 64.8 | 42.4
CN(C)c1ccc(C(=O)C#Cc2ccncc2)cc1 [MDL 102,175, 1-(4-Dimethylaminophenyl)-3-(4-pyridinyl)-2-propyne-1-one] | inhibited in a dose dependent fashion | -20.2 | 13.5 | 49.7 | 77.7 | 100 | -15 | 15.4 | 44.1 | 75.7 | 89.8 | 38.6 ± 13.1 | 38.5 ± 34.9 | 56.8 ± 6.4 | 6.4 ± 27.7 | 68.2 ± 5.8 | 43.9 ± 15.6 | 73.2 | 19.8
